Assay results: patent publication US20220064214A1, “NOVEL PEPTIDES AND USES THEREOF” (CENNA BIOSCIENCES INC., priority 2019, published 2022)
“And” between values parts separate entries of the source, which are not always exact repeats. Identical values can stand only once. Marks after values point to notes of the source that are not given here. Ends that are not written are not given here.

Tests used:
[1] = Pharmacokinetics study in rats, plasma; assay type: in vivo; details: rat; for plasma concentration: individual rats
Description: (§1) An in-vivo study was carried out in rats to determine the pharmacokinetics (PK) of peptides P8, 8M1D and 8M2D in plasma and CSF. Each peptide was assessed through two dosage routes, intravenous (IV) and subcutaneous (SC). Three rats were assigned to each dose group with each peptide. Total of twelve rats per peptide were used.
(§2) Blood was collected through jugular vein cannulas, and the samples were collected into tubes with K2EDTA. After centrifuging at a temperature of 2 to 8° C. at 4,000×g for 5 minutes, the resulting plasma was split into equal aliquots, frozen, and stored at −60 to −80° C. One aliquot was for PK analysis and the other was for Aβ analysis (see Example 4).

[2] = Pharmacokinetics study in rats, CSF; assay type: in vivo; design: CSF concentration, Mean IV / CSF concentration, Mean SC: unit not given here; details: rat; for CSF concentration, Mean IV: 10 mg/kg IV; for CSF concentration, Mean SC: 10 mg/kg SC
Description: as §1
CSF collection was performed by first anesthetizing animals at specified time points (see Table 5) with a mixture of 80 mg/kg ketamine and 8 mg/kg xylazine. The depth of anesthesia was monitored by toe pinches. CSF was collected via the cisterna magna (˜0.05 mL), and it was split into equal aliquots, frozen, and stored at −60 to −80° C.

Aβ40 = assay: Efficacy in reducing Aβ40 in rat plasma (ELISA); assay type: in vivo; details: 10 mg/kg SC; for reduction in Aβ40: rat plasma; for Percent Decrease in Aβ 40 in Rat Plasma: mean of 3 rats, negative = decrease
Description: as §2
Rats (n=3 per peptide) were administered with P8, 8M1D, or 8M2D (10 mg/kg) subcutaneously, and plasma were collected at 0, 6, 12, and 24 h after dosing and Aβ40 analysis was carried out by ELISA (Invitrogen).

[3] = Delivery to brain in transgenic mice (brain concentrations); assay type: in vivo; details: SC administration
Description: Critical to the development of any therapeutic for diseases like AD is the requirement that it can be delivered to the brain. Delivery to brain and efficacy of P8 and 8M2D in reducing Aß was analyzed in the transgenic mice described in Section 6.3 above. […]

Aβ = assay: Reduction of Aβ in retinal cells differentiated from iPSC derived from Alzheimer's disease patients; assay type: cell-based
Description: The accumulation of Aβ in the retina was studied in this example. Retinal cells were differentiated from induced pluripotent stem (iPSC) cells derived from Alzheimer's disease patients.

For “DEEEDEEL-OH [P8, DEEEDEEL, reference compound]”, the “time after dosing at which detectable in plasma” value ([1]; 10 mg/kg IV and SC) was no more than 2 h, the plasma concentration ([1]; 10 mg/kg IV, 0 hr (pre-dose)) was “BQL” and the plasma concentration ([1]; 10 mg/kg IV, 0.167 hr, 10 mg/kg) was 9,770 and 12,800 ^a and 11,800 ^a. For the same substance, the plasma concentration ([1]; 10 mg/kg IV, 0.5 hr, 10 mg/kg, in ng/mL (unit assumed)) was 2,340 and 2,080 and 2,710, the plasma concentration ([1]; 10 mg/kg IV, 1 hr, 10 mg/kg, in ng/mL (unit assumed)) was 257 and 219 and 189 and the plasma concentration ([1]; 10 mg/kg IV, 2 hr, 10 mg/kg, in ng/mL (unit assumed)) was 26.3 and 22.7 and 18.9. The plasma concentration ([1]; 10 mg/kg IV, 4 hr, 10 mg/kg) was 3.23 ^b and 3.18 ^b and 2.89 ^b, the plasma concentration ([1]; 10 mg/kg IV, 6 hr, 10 mg/kg) was 1.07 ^b and 0.794 ^b and the plasma concentration ([1]; 10 mg/kg IV, 8 hr) was “BQL”. For the same substance, the plasma concentration ([1]; 10 mg/kg IV, 12 hr) was “BQL”, the plasma concentration ([1]; 10 mg/kg IV, 24 hr) was “BQL” and the plasma concentration ([1]; 10 mg/kg SC, 0 hr (pre-dose)) was “BQL”. For the same substance, the plasma concentration ([1]; 10 mg/kg SC, 0.167 hr, 10 mg/kg) was 5,610 and 14,400 ^a and 11,900 ^a, the plasma concentration ([1]; 10 mg/kg SC, 0.5 hr, 10 mg/kg, in ng/mL (unit assumed)) was 3,030 and 7,010 and 7,250 and the plasma concentration ([1]; 10 mg/kg SC, 1 hr, 10 mg/kg, in ng/mL (unit assumed)) was 670 and 1,300 and 1,970. The plasma concentration ([1]; 10 mg/kg SC, 2 hr, 10 mg/kg, in ng/mL (unit assumed)) was 105 and 191 and 245, the plasma concentration ([1]; 10 mg/kg SC, 4 hr, 10 mg/kg) was 5.44 ^b and 9.41 ^b and 20.7 and the plasma concentration ([1]; 10 mg/kg SC, 6 hr, 10 mg/kg) was 1.18 ^b and 4.35 ^b and 9.33 ^b. The plasma concentration ([1]; 10 mg/kg SC, 8 hr, 10 mg/kg) was “BQL and 1.32 ^b and 1.51 ^b”, the plasma concentration ([1]; 10 mg/kg SC, 12 hr, 10 mg/kg) was “BQL (2×) and 0.900 ^b” and the plasma concentration ([1]; 10 mg/kg SC, 24 hr) was “BQL”. For the same substance, the “time after dosing at which detectable in CSF” value ([2]; 10 mg/kg IV and SC) was no more than 2 h, the “CSF concentration, Mean IV” value ([2]; 0 hr) was 0 and the “CSF concentration, Mean IV” value ([2]; 0.5 hr) was 42.4. For the same substance, the “CSF concentration, Mean IV” value ([2]; 1 hr) was 14.2, the “CSF concentration, Mean IV” value ([2]; 2 hr) was 4.89 and the “CSF concentration, Mean IV” value ([2]; 4 hr) was 0. The “CSF concentration, Mean IV” value ([2]; 8 hr) was 0, the “CSF concentration, Mean IV” value ([2]; 12 hr) was 0 and the “CSF concentration, Mean IV” value ([2]; 24 hr) was 0. For the same substance, the “CSF concentration, Mean SC” value ([2]; 0 hr) was 0, the “CSF concentration, Mean SC” value ([2]; 0.5 hr) was 79.4 and the “CSF concentration, Mean SC” value ([2]; 1 hr) was 19.3. For the same substance, the “CSF concentration, Mean SC” value ([2]; 2 hr) was 23.3, the “CSF concentration, Mean SC” value ([2]; 4 hr) was 0 and the “CSF concentration, Mean SC” value ([2]; 8 hr) was 0. The “CSF concentration, Mean SC” value ([2]; 12 hr) was 0, the “CSF concentration, Mean SC” value ([2]; 24 hr) was 0 and the “reduction in Aβ40” value (Aβ40; 12 hr post dosing) was “about 22%”. For the same substance, the “reduction in Aβ40” value (Aβ40; 24 h post dosing) was “about 13%”, the “Percent Decrease in Aβ 40 in Rat Plasma” value (Aβ40; 0 h) was 0.00% and the “Percent Decrease in Aβ 40 in Rat Plasma” value (Aβ40; 6 h) was −18.13%. For the same substance, the “Percent Decrease in Aβ 40 in Rat Plasma” value (Aβ40; 12 h) was −22.70%, the “Percent Decrease in Aβ 40 in Rat Plasma” value (Aβ40; 24 h) was −13.22% and the “delivery to the APPTg mouse brain (in words)” value [3] was “in sufficient amounts to reduce Aß in the brain”. For the same substance, the “production of Aβ in retinal cells in the presence of the peptide (in words)” value (Aβ) was “reduced”.
